Where a SMILES comes first, the peptide text is derived from it. Bridges are numbered along the chain shown (N, C = ends). [ ]: non-standard residue; d: D form. hPhe(3-Cl-4-CF3) = N[C@@H](CCc1ccc(C(F)(F)F)c(Cl)c1)C(=O)O; NPrPhe(4-CF3) = CCCN[C@@H](Cc1ccc(C(F)(F)F)cc1)C(=O)O; NMeGly(cPent) = CN[C@H](C(=O)O)C1CCCC1; Pro(4,4-F2) = O=C(O)[C@@H]1CC(F)(F)CN1; NMeD = CN[C@@H](CC(=O)O)C(=O)O; NMeL = CN[C@@H](CC(C)C)C(=O)O; Ac4c = NC1(C(=O)O)CCC1; Sar = CNCC(=O)O
Tests used:
[1] = target: GDP-bound HRAS wild-type protein (Homo sapiens, UniProt P01112); test: Binding to HRAS by surface plasmon resonance (SPR), Single Cycle Kinetics; conditions: for HRAS/KRAS (ratio of KD value with respect to HRAS to KD value with respect to KRAS) / HRAS/KRAS (ratio of KD value for HRAS to KD value for KRAS): GDP-bound HRAS wild-type vs GDP-bound KRAS wild-type
Chain of GDP-bound HRAS wild-type protein (P01112 whole entry): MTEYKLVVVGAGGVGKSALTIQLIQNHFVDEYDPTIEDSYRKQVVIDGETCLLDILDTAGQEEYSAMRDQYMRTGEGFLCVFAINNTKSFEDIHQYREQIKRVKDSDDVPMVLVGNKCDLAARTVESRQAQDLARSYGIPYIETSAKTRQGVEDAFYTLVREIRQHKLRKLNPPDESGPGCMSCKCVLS

[2] = target: GDP-bound NRAS wild-type protein (Homo sapiens, UniProt P01111); test: Binding to NRAS by surface plasmon resonance (SPR), Single Cycle Kinetics; conditions: for NRAS/KRAS (ratio of KD value with respect to NRAS to KD value with respect to KRAS) / NRAS/KRAS (ratio of KD value for NRAS to KD value for KRAS): GDP-bound NRAS wild-type vs GDP-bound KRAS wild-type
Chain of GDP-bound NRAS wild-type protein (P01111 whole entry): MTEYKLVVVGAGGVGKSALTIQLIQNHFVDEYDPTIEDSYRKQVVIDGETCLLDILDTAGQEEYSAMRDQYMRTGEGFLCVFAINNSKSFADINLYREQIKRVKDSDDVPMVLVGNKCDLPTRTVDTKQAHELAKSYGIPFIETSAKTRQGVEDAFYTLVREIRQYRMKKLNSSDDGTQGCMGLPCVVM

## CCOC[C@H]1C(=O)N[C@@H]([C@@H](C)CC)C(=O)N(C)CC(=O)N(C)[C@H]2C/C=C\CCN(C2=O)[C@@H](Cc2ccc(C)cc2)C(=O)N(C)CC(=O)N[C@@H](CCc2ccc(C(F)(F)F)c(Cl)c2)C(=O)N2C[C@@H](C)C[C@H]2C(=O)NC2(CC(C)(C)C2)C(=O)N(C)[C@@H](C2CCCC2)C(=O)N(C)[C@H](C(=O)N(C)CC)CC(=O)N1C [PP2451]
[1]; SPR
  HRAS/KRAS (ratio of KD value with respect to HRAS to KD value with respect to KRAS): A (a compound having 10 or more and less than 20 is denoted as A)
[2]; SPR
  NRAS/KRAS (ratio of KD value with respect to NRAS to KD value with respect to KRAS): A (a compound having 10 or more and less than 20 is denoted as A)

## CCO[C@@H]1C[C@H]2C(=O)NC3(CC(F)(F)C3)C(=O)N(C)[C@@H](C3CCCC3)C(=O)N(C)[C@H](C(=O)N3CCOCC3)CC(=O)N(C)[C@@H](CC(C)C)C(=O)N[C@@H]([C@@H](C)CC)C(=O)N(C)CC(=O)N(C)[C@H]3CC=C(C)CN(C3=O)[C@@H](Cc3ccc(C(F)(F)F)cc3)C(=O)N(C)CC(=O)N[C@@H](CCc3cc(F)c(C(F)(F)F)c(F)c3)C(=O)N2C1 [PP0828]
[1]; KD ratio, SPR
  HRAS/KRAS (ratio of KD value with respect to HRAS to KD value with respect to KRAS): C (A compound having a KD ratio of 0.1 or more and less than 3 is denoted as C)
[2]; KD ratio, SPR
  NRAS/KRAS (ratio of KD value with respect to NRAS to KD value with respect to KRAS): C (A compound having a KD ratio of 0.1 or more and less than 3 is denoted as C)

## CCO[C@@H]1C[C@H]2C(=O)NC3(CC(C)(C)C3)C(=O)N(C)[C@@H](C3CCCC3)C(=O)N(C)[C@H](C(=O)N(C)CC)CC(=O)N(C)[C@@H](CC(C)C)C(=O)N[C@@H]([C@@H](C)CC)C(=O)NCC(=O)N(C)[C@H]3C/C=C\CCN(C3=O)[C@@H](Cc3ccc(C(F)(F)F)cc3)C(=O)N(C)CC(=O)N[C@@H](CCc3cc(F)c(C(F)(F)F)c(F)c3)C(=O)N2C1 [PP1771]
[1]; KD ratio, SPR
  HRAS/KRAS (ratio of KD value for HRAS to KD value for KRAS): A (a compound having 10 or more and less than 20 is denoted as A)
[2]; KD ratio, SPR
  NRAS/KRAS (ratio of KD value for NRAS to KD value for KRAS): A (a compound having 10 or more and less than 20 is denoted as A)

## CCCN1C(=O)CN(C)C(=O)CNC(=O)[C@H]([C@@H](C)CC)NC(=O)[C@H](CC(C)C)N(C)C(=O)C[C@@H](C(=O)N(C)C)N(C)C(=O)[C@H](C2CCCC2)N(C)C(=O)C2(CCC2)NC(=O)[C@@H]2CC(F)(F)CN2C(=O)[C@H](CCc2ccc(C(F)(F)F)c(Cl)c2)NC(=O)CN(C)C(=O)[C@@H]1Cc1ccc(C(F)(F)F)cc1 [PP0420] ([NMeL]IG[Sar][NPrPhe(4-CF3)][Sar][hPhe(3-Cl-4-CF3)][Pro(4,4-F2)][Ac4c][NMeGly(cPent)][NMeD]-NMe2; lactam N-11)
[1]; SPR
  HRAS/KRAS (ratio of KD value with respect to GDP-bound HRAS wild-type protein to KD value with respect to KRAS): C (A compound having a KD ratio of 0.1 or more and less than 3 is denoted as C)
[2]; SPR
  NRAS/KRAS (ratio of KD value with respect to GDP-bound NRAS wild-type protein to KD value with respect to KRAS): B (a compound having 3 or more and less than 10 is denoted as B)

## CCO[C@@H]1C[C@H]2C(=O)NC3(CC(C)(C)C3)C(=O)N(C)[C@@H](C3CCCC3)C(=O)N(C)[C@H](C(=O)N(C)CC)CC(=O)N(C)[C@@H](CC)C(=O)N[C@@H]([C@@H](C)CC)C(=O)N(C)CC(=O)N(C)[C@H]3C/C=C\CCN(C3=O)[C@@H](Cc3ccc(C(F)(F)F)cc3)C(=O)N(C)CC(=O)N[C@@H](CCc3ccc(C(F)(F)F)c(OC)c3)C(=O)N2C1 [PP1653]
[1]; KD ratio, SPR
  HRAS/KRAS (ratio of KD value for HRAS to KD value for KRAS): A (a compound having 10 or more and less than 20 is denoted as A)
[2]; KD ratio, SPR
  NRAS/KRAS (ratio of KD value for NRAS to KD value for KRAS): A (a compound having 10 or more and less than 20 is denoted as A)

## CCC(CC)[C@H]1C(=O)N(C)[C@H](C(=O)N(C)C)CC(=O)N(C)[C@H]2CCC/C=C/c3ccc(cc3)C[C@@H](C(=O)N(C)CC(=O)N[C@@H](CCc3cc(F)c(C(F)(F)F)c(F)c3)C(=O)N3CCC[C@H]3C(=O)NC3(CC(C)(C)C3)C(=O)N1C)N1CC/C=C\C[C@@H](C1=O)N(C)C(=O)CN(C)C(=O)[C@H]([C@@H](C)CC)NC2=O [PP2600]
[1]; class symbols
  HRAS/KRAS (ratio of KD value with respect to GDP-bound HRAS wild-type protein to KD value with respect to KRAS): A (a compound having 10 or more and less than 20 is denoted as A)
[2]; class symbols
  NRAS/KRAS (ratio of KD value with respect to GDP-bound NRAS wild-type protein to KD value with respect to KRAS): A (a compound having 10 or more and less than 20 is denoted as A)

## CCO[C@@H]1C[C@H]2C(=O)NC3(CC(C)(C)C3)C(=O)N(C)[C@@H](C(CC)CC)C(=O)N(C)[C@H](C(=O)N(C)C)CC(=O)N(C)[C@@H](CC3CCC3)C(=O)N[C@@H]([C@@H](C)CC)C(=O)N(C)CC(=O)N(C)[C@H]3C/C=C\CCN(C3=O)[C@@H](Cc3ccc(C(F)(F)F)cc3)C(=O)N(C)CC(=O)N[C@@H](CCc3cc(F)c(C(F)(F)F)c(F)c3)C(=O)N2C1 [PP2133]
[1]; SPR
  HRAS/KRAS (ratio of KD value with respect to HRAS to KD value with respect to KRAS): A (a compound having 10 or more and less than 20 is denoted as A)
[2]; SPR
  NRAS/KRAS (ratio of KD value with respect to NRAS to KD value with respect to KRAS): AA (a compound having 20 or more is denoted as AA)

— patent US20250230193A1, “CYCLIC COMPOUND HAVING SELECTIVE KRAS INHIBITORY EFFECT ON HRAS AND NRAS” (CHUGAI SEIYAKU KABUSHIKI KAISHA, priority 2022, published 2025)
